Among the data in the METLIN SMRT retention time set (Domingo-Almenara et al. 2019) are RP-LC retention time values, retold here.

A short description of this series: gradient 5% acetonitrile 3 min, to 50% in 2 min, to 85% in 15 min, held 3 min, 100 µL/min. The note with it: column: Zorbax Extend-C18 2.1 x 50 mm; eluents: water / acetonitrile, 0.1% formic acid. In a few lines: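 Retention times of pure standards were taken from adduct peaks that were selected by computer and manually inspected. Over 3 months, mixtures of ~100 molecules were run by HPLC–quadrupole time-of-flight mass spectrometry in positive and negative ionization mode. The Zorbax Extend-C18 column (2.1 × 50 mm, 1.8 μm) ran at 100 μL/min in water and acetonitrile, each containing 0.1% formic acid, with 40 μL dead volume and 900 μL dwell volume.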
The compound `Cc1ccc(NC(=O)N2CCCN(c3ccc(=O)n(-c4ccccc4)n3)CC2)cc1` displayed an RP-LC retention time of 820 s. `CCNC(=O)CN1C(=O)CCn2nc(-c3cn(C)c4ccccc34)cc21` had an RP-LC retention time of 656 s. The compound `CCc1noc(NC(C)=O)c1-c1ccc(C)c(S(=O)(=O)Nc2ccc(C(=O)OC)cc2)c1` returned an RP-LC retention time of 736 s. Take `COc1ccc(CNC(=O)c2cnc3c(c2)c(=O)n(C)c(=O)n3-c2ccc(OC)cc2)cc1`: the RP-LC retention time came out at 841 s. Consider `COc1ccc(Cl)cc1N1CC(c2nc(-c3cccs3)no2)CC1=O` (stereo not drawn), for which the RP-LC retention time was 930 s. The figure for `NC1=NC(=O)/C(=C/c2ccccc2OCC(=O)Nc2ccc(F)cc2)S1` is 660 s; for `Cc1noc(C)c1S(=O)(=O)N1CC(n2cc(C(=O)NCC3CC3)nn2)C1` it is 757 s. Compound `CCCN1C(=O)c2cccnc2Sc2cc(C(=O)N3CCCCC3)ccc21` showed an RP-LC retention time of 772 s. `CC1=C(c2cccc(Cl)c2)S(=O)(=O)N=C1N1CCC(NC(=O)C2CCC2)CC1`: the RP-LC retention time came out at 840 s. Regarding `O=C(CN1C(=O)CCC1=O)Nc1cccc(NC(=O)CN2C(=O)CCC2=O)c1`, the RP-LC retention time was determined as 692 s. For `CN(C)C(=O)c1cc2c(s1)CCC(C(=O)Nc1ccc3c(c1)OCCO3)C2` (stereo not drawn) the value was 764 s; for `CCC(C)NC(=O)C1CCN(S(=O)(=O)c2c(C)[nH]c(C)c2C(=O)N2CCCCC2)CC1` (stereo not drawn), 672 s.

In the case of `Cc1nc2cc(-c3noc(CNC(=O)c4cccs4)n3)ccc2o1`, the RP-LC retention time came to 747 s. In turn, `Cn1cc2c3c(cccc31)CN(C(=O)c1ccc(Br)cc1)CC2` came in with an RP-LC retention time of 1030 s. The figure for `CCC(C)NC(=O)Cn1c(=O)cc(-c2nc(C(C)C)no2)c2ccccc21` (stereo not drawn) is 707 s; for `Cc1sc2ccn(CC(C)C)c(=O)c2c1C(=O)N1CCN(C2CCCCC2)CC1` it is 642 s.

For `Cc1cccc(NC(=O)Cn2ccc3ccn(C)c3c2=O)c1`, the RP-LC retention time was found to be 772 s. In the case of `CCc1cccc(C)c1NC(=O)C1CCN(S(=O)(=O)c2c(C)nn(-c3ccccc3)c2C)CC1`, the RP-LC retention time stood at 976 s. As to `CCn1cc(C(=O)Nc2ccc(F)c(F)c2)c(S(=O)(=O)N2CCC(C)CC2)n1`, the RP-LC retention time was determined as 1170 s. On to `CCOC(=O)c1oc2ccccc2c1NC(=O)c1ccccc1S(C)(=O)=O`, for which the RP-LC retention time worked out at 800 s. Consider `CCOc1ccc(-c2csc3c(=O)n(Cc4ccc(Br)cc4)cnc23)cc1OCC`, for which the RP-LC retention time turned out to be 1210 s. `COc1ccc(NC(=O)N2CCCC2c2nc(-c3cccc(F)c3)no2)cc1` (stereo not drawn): the RP-LC retention time turned out to be 842 s.

With `Cc1nnc(N2CCC(C(=O)N3CCOCC3)CC2)c2nn(-c3ccc(Cl)cc3)c(C)c12`, the RP-LC retention time amounted to 669 s. On to `CC(=O)c1ccc(NC(=O)Cn2nc3c4cc(-c5ccc(C(C)C)cc5)nn4ccn3c2=O)cc1`, for which the RP-LC retention time amounted to 1020 s. `COc1ccc(NC(=O)Cn2ccc3ccc(-c4nnc(C)o4)cc32)cc1` showed an RP-LC retention time of 937 s. Consider `COc1ccc(-c2noc(Cn3nc(-c4cccc(OC)c4)ccc3=O)n2)cc1`, for which the RP-LC retention time was 974 s. Take `Cc1ccnc(N2CCCC(C(=O)NCc3ccc4c(c3)OCO4)C2)n1` (stereo not drawn): the RP-LC retention time amounted to 692 s. The figure for `Fc1ccc(CN2CCO[C@@H](COc3ccccn3)[C@@H]2c2ccccc2)c(F)c1` is 894 s; for `O=C(NCCCn1cccn1)C1CCN(c2nnc3ccc(Cl)cn23)CC1` it is 618 s. The compound `CC(C)c1c(C(=O)O)nnn1Cc1ccc(Cl)cc1` had an RP-LC retention time of 788 s. Regarding `NC(=O)c1oc2ccccc2c1NC(=O)c1coc2ccccc2c1=O`, the RP-LC retention time is 769 s. In turn, `COc1ccc(CNS(=O)(=O)c2cn(C(C)C)c3ncccc23)cc1` came in with an RP-LC retention time of 841 s.

In turn, `O=C(Nc1ccc(F)c(F)c1)C1CCN(c2cc(N3CCSCC3)ncn2)CC1` showed an RP-LC retention time of 709 s. For `Cc1c(CCC(=O)N2CCC3(O)CCCCC3C2)c(=O)oc2cc(O)ccc12` (stereo not drawn) the value was 652 s; for `COC(=O)c1ccc(Cl)cc1NC(=O)N1CCc2nc[nH]c2C1`, 644 s; for `O=S(=O)(c1ccc(-c2nnc(C3CCCC3)o2)o1)N1CCCCC1`, 1010 s.

With `CCc1ccc(NC(=O)N2CCC(N3CCN(Cc4ccccc4)C(=O)C3=O)CC2)cc1`, the RP-LC retention time worked out at 789 s.

The compound `CCCNC(=O)C1CCCN(c2nc3ncn(CC(=O)Nc4ccccc4Cl)c(=O)c3s2)C1` (stereo not drawn) registered an RP-LC retention time of 738 s. As for `O=C(Nc1ccc(N2CCN(Cc3ccc(F)cc3)C2=O)nc1)c1ccco1`, the RP-LC retention time was 749 s. For `Cc1cc2c(c(=O)n(-c3ccc(F)cc3)c(=O)n2CC(=O)Nc2ccc3c(c2)OCO3)n1C` the value was 807 s; for `Cc1csc(C(=O)NCC(O)c2ccc(C(F)(F)F)cc2)c1` (stereo not drawn), 795 s. In the case of `Cc1ccc(CNC(=O)C2CCCN(c3ccc(=O)n(-c4ccc(C)c(Cl)c4)n3)C2)cc1` (stereo not drawn), the RP-LC retention time was 975 s. For `Cn1c(N2CCC(C(=O)NC3CCN(Cc4ccccc4)CC3)CC2)cc(=O)n(C)c1=O` the value was 578 s; for `CO[C@H]1CN(C2CCN(S(=O)(=O)Cc3ccccc3F)CC2)[C@H]1c1ccncc1`, 620 s; for `OC1CCCCC1N1CCC(c2ccccc2)CC1` (stereo not drawn), 679 s. `N#CCCN1CCN(c2cc(C(=O)O)c3cc(NC(=O)c4cccc(Cl)c4)ccc3n2)CC1` had an RP-LC retention time of 614 s.

For `O=S(=O)(c1ccc(-c2noc(COc3ccc(Cl)cc3)n2)cc1)N1CCOCC1`, the RP-LC retention time worked out at 1090 s. Turning to `Cc1ccc(-n2ccc(=O)c(-c3nc(-c4ccc(Br)cc4)no3)n2)cc1`, the RP-LC retention time was 1030 s. For `O=C(NCc1csc(C2CCN(C(=O)COc3ccccc3)CC2)n1)C1CC1`, the RP-LC retention time was 701 s.

`CCN1C(=O)CCc2cc(NS(=O)(=O)c3ccc(C4CCCCC4)cc3)ccc21`: the RP-LC retention time was 1060 s. The figure for `Cc1c(C(=O)NC2CCCC2)cnn1-c1ccc(-c2nc(C3CC3)no2)cn1` is 999 s; for `CCOC(=O)c1noc2ncnc(N(Cc3ccccc3)C(C)C)c12` it is 1080 s. As for `CN(C)C(CNC(=O)c1cc(-c2ccc3c(c2)OCCO3)on1)c1ccc(F)cc1` (stereo not drawn), the RP-LC retention time was found to be 681 s. With `COC(=O)c1ccc(OC)c(Cn2cnc3c(-c4ccc(C)cc4)csc3c2=O)c1`, the RP-LC retention time came out at 1070 s. The compound `COCCCNC(=O)C1CC(=O)N(CCc2c[nH]c3ccc(C)cc23)C1` (stereo not drawn) had an RP-LC retention time of 667 s. For `Cc1cccc(NC(=O)C2CCN(S(=O)(=O)c3ccc4c(c3)sc(=O)n4C)CC2)c1` the value was 910 s; for `COC(CNC(=O)c1cc(C)nn1-c1ccccc1)OC`, 659 s; for `Cc1noc(C)c1S(=O)(=O)N1CCCN(S(=O)(=O)c2ccccc2)CCC(=O)NCC1`, 752 s. Consider `CCOc1ccc(-c2noc(CN3N=NC4C(=O)N(c5cccc(F)c5)C(=O)C43)n2)cc1OC` (stereo not drawn), for which the RP-LC retention time was 926 s. The compound `CCOC(=O)c1cc(S(=O)(=O)N2CCCC2C(=O)NC(C)C)cn1C` (stereo not drawn) displayed an RP-LC retention time of 746 s. `COc1ccc(C)cc1NC(=O)C1CCN(S(C)(=O)=O)c2cc(C)ccc2O1` (stereo not drawn) displayed an RP-LC retention time of 1030 s. Consider `CSc1ccc(-c2nc3nc(C)cc(C)n3c2Nc2ccc(C(C)C)cc2)cc1`, for which the RP-LC retention time turned out to be 943 s. For `Cn1nc(-c2nc(-c3cccc(F)c3)no2)c2c1CCN(C(=O)C1CCCO1)C2` (stereo not drawn) the value was 789 s; for `Cc1ccc(-c2nc3cnccn3c2Nc2cc(C)cc(C)c2)cc1`, 1040 s. In turn, `Cc1ccccc1-c1noc(Cn2c(=O)n(Cc3ccco3)c(=O)c3ccccc32)n1` displayed an RP-LC retention time of 1100 s. Regarding `CCc1nc(-c2csc(S(=O)(=O)N3CCCC(C(=O)Nc4cccc(F)c4)C3)c2)no1` (stereo not drawn), the RP-LC retention time worked out at 1070 s. Compound `Cc1ccc(-c2csc(NC(=O)CN3C(=O)COc4ccc(Cl)cc43)n2)cc1` displayed an RP-LC retention time of 1070 s. `O=S(=O)(c1cc(F)cc(F)c1)N1CCC(c2noc(-c3cccc(F)c3)n2)CC1` returned an RP-LC retention time of 1170 s. `CCOC(=O)c1nc(N(CC)c2cccc(C)c2)c2ccccc2n1` came in with an RP-LC retention time of 1050 s. As for `Cc1cc2c(=O)n(CC(=O)Nc3ccc(F)cc3)c3cccnc3n2n1`, the RP-LC retention time was 689 s. As for `CSc1ccc(CCNC(=O)CCC(=O)N2CCCn3nc(C)cc32)cc1`, the RP-LC retention time was 703 s.

As for `Cc1ccc(Sc2c(-c3ccccc3)nc3ncccn23)cc1`, the RP-LC retention time stood at 1040 s. For `CC(CNC(=O)c1nc(N2CCOCC2)c2ccccc2n1)c1ccccc1` (stereo not drawn), the RP-LC retention time amounted to 726 s. On to `O=C(CCc1nc(-c2ccc(N3CCCC3)cc2)no1)Nc1ccc(Br)cc1F`, for which the RP-LC retention time is 1220 s. Consider `Cc1ccc(NC(=O)CSc2nccc(N3CCN(c4cc(C)ccc4C)CC3)n2)c(F)c1`, for which the RP-LC retention time worked out at 1110 s. `C[C@H]1CN(C(=O)c2cc(F)cc(F)c2)C[C@@H]1c1nc(-c2ccncc2)no1` gave an RP-LC retention time of 781 s.

Regarding `CCCCn1cc(S(=O)(=O)NCc2ccccn2)c2cccnc21`, the RP-LC retention time turned out to be 671 s. As for `CCSc1nnc(-c2nn(C)c3c2CN(C(=O)CCc2ccccc2)CC3)n1C`, the RP-LC retention time was 767 s.
